Experiments:
[1] = test system: Surinam grass; assay: Test B pre-/postemergence herbicide test; assay type: in vivo, Urochloa decumbens; conditions: for Plant response rating (0 to 100 scale), Surinam Grass: 0 is no effect, 100 is complete control, preemergence; for Surinam Grass plant response rating: scale 0 (no effect) to 100 (complete control)
Procedure, shortened: (§1)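 Response was scored visually 13 to 15 days after treatment against untreated greenhouse controls, 0 meaning no effect and 100 complete control. Formulations (solvent mixture plus surfactant) went onto soil after planting, onto foliage of 1- to 4-leaf plants, and onto 2-leaf plants in a flooded paddy set including rice and barnyardgrass.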

[2] = test system: pigweed; assay: Test B pre-/postemergence herbicide test; assay type: in vivo, Amaranthus retroflexus; conditions: for Plant response rating (0 to 100 scale), Pigweed: 0 is no effect, 100 is complete control, preemergence; for Pigweed plant response rating: scale 0 (no effect) to 100 (complete control)
Procedure, shortened: as §1

[3] = test system: small flower umbrella sedge; assay: Test B flooded paddy test; assay type: in vivo, Cyperus difformis; conditions: 1000 g ai/ha, scale 0 to 100 (0 no effect, 100 complete control)
Procedure, shortened: (§2)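 Formulated test chemicals went onto postemergence plants measuring 2 to 18 cm, at one to four leaves. For the paddy assay, species had reached two leaves. Scoring took place 13–15 days later by eye, relative to untreated plants, using 0 for no effect up to 100 for full control.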

[4] = test system: rice; assay: Test B flooded paddy test; assay type: in vivo, Oryza sativa; conditions: 1000 g ai/ha, scale 0 to 100 (0 no effect, 100 complete control)
Procedure, shortened: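 Postemergence plants were sprayed with formulated test chemicals at 2 to 18 cm height (1- to 4-leaf stage); paddy species were grown to the 2-leaf stage. After 13 to 15 days in a greenhouse, injury was rated visually against untreated controls on a 0–100 scale (0 = no effect, 100 = complete control).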

[5] = test system: wheat; assay: Test B postemergence herbicide test; assay type: in vivo, Triticum aestivum; parameters: key to Wheat plant response rating: 0 = no effect, 100 = complete control
Procedure, shortened: (§3)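 After treating 2-leaf paddy plants or 2–18 cm postemergence plants (1 to 4 leaves) with formulated chemical, researchers kept them in a greenhouse for 13–15 days. Effects were judged visually versus controls: 0 indicates none, 100 total control.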

[6] = test system: morningglory; assay: Test B pre-/postemergence herbicide test; assay type: in vivo, Ipomoea coccinea; conditions: for Plant response rating (0 to 100 scale), Morningglory: 0 is no effect, 100 is complete control, preemergence; for Morningglory plant response rating: scale 0 (no effect) to 100 (complete control)
Procedure, shortened: (§4)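 Plants compared with untreated controls 13–15 days post-treatment and given a visual 0–100 injury score. Applications: preemergence to seeds; postemergence at 1- to 4-leaf (2–18 cm); paddy species flooded, 2-leaf stage. Vehicle non-phytotoxic, surfactant included.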

[7] = test system: giant foxtail; assay: Test B pre-/postemergence herbicide test; assay type: in vivo, Setaria faberi; conditions: for Plant response rating (0 to 100 scale), Foxtail, Giant: 0 is no effect, 100 is complete control, preemergence; for Foxtail, Giant plant response rating: scale 0 (no effect) to 100 (complete control)
Procedure, shortened: as §1

[8] = test system: cocklebur; assay: Test B pre-/postemergence herbicide test; assay type: in vivo, Xanthium strumarium; conditions: for Plant response rating (0 to 100 scale), Cocklebur: 0 is no effect, 100 is complete control, preemergence; for Cocklebur plant response rating: scale 0 (no effect) to 100 (complete control)
Procedure, shortened: as §4

[9] = test system: velvetleaf; assay: Test B pre-/postemergence herbicide test; assay type: in vivo, Abutilon theophrasti; conditions: for Plant response rating (0 to 100 scale), Velvetleaf: 0 is no effect, 100 is complete control, preemergence; for Velvetleaf plant response rating: scale 0 (no effect) to 100 (complete control)
Procedure, shortened: as §1

[10] = test system: ducksalad; assay: Test B flooded paddy test; assay type: in vivo, Heteranthera limosa; conditions: 1000 g ai/ha, scale 0 to 100 (0 no effect, 100 complete control)
Procedure, shortened: as §2

[11] = test system: barnyardgrass; assay: Test B flooded paddy test; assay type: in vivo, Echinochloa crus-galli; conditions: 1000 g ai/ha, scale 0 to 100 (0 no effect, 100 complete control)
Procedure, shortened: as §2

[12] = test system: large crabgrass; assay: Test B pre-/postemergence herbicide test; assay type: in vivo, Digitaria sanguinalis; conditions: for Plant response rating (0 to 100 scale), Crabgrass, Large: 0 is no effect, 100 is complete control, preemergence; for Crabgrass, Large plant response rating: scale 0 (no effect) to 100 (complete control)
Procedure, shortened: as §1

[13] = test system: blackgrass; assay: Test B postemergence herbicide test; assay type: in vivo, Alopecurus myosuroides; conditions: scale 0 (no effect) to 100 (complete control)
Procedure, shortened: as §2

[14] = test system: wild oat; assay: Test B postemergence herbicide test; assay type: in vivo, Avena fatua; conditions: scale 0 (no effect) to 100 (complete control)
Procedure, shortened: as §3

[15] = test system: barnyardgrass; assay: Test B pre-/postemergence herbicide test; assay type: in vivo, Echinochloa crus-galli; conditions: for Plant response rating (0 to 100 scale), Barnyardgrass: 0 is no effect, 100 is complete control, preemergence; for Barnyardgrass plant response rating: scale 0 (no effect) to 100 (complete control)
Procedure, shortened: as §4

[16] = test system: corn; assay: Test B pre-/postemergence herbicide test; assay type: in vivo, Zea mays; conditions: for Plant response rating (0 to 100 scale), Corn: 0 is no effect, 100 is complete control, preemergence; for Corn plant response rating: scale 0 (no effect) to 100 (complete control)
Procedure, shortened: as §1

[17] = 125 g ai/ha, visual rating, postemergence
[18] = 125 g ai/ha, visual rating, scale 0 (no effect) to 100 (complete control), postemergence
[19] = 500 g ai/ha, scale 0 to 100, 0 no effect, 100 complete control, preemergence
[20] = Postemergence, 500 g ai/ha, scale 0 (no effect) to 100 (complete control)

| SMILES | Plant response rating (0 to 100 scale), Surinam Grass ([1]; 125 g ai/ha) | Surinam Grass plant response rating [1, 17] | Surinam Grass plant response rating ([1]; Postemergence, 500 g ai/ha) | Plant response rating (0 to 100 scale), Pigweed ([2]; 125 g ai/ha) | Pigweed plant response rating [2, 17] | Pigweed plant response rating ([2]; Postemergence, 500 g ai/ha) | Sedge, Umbrella plant response rating [3] | Rice plant response rating [4] | Wheat plant response rating [5, 18] | Wheat plant response rating [5, 19] | Wheat plant response rating [5, 20] | Plant response rating (0 to 100 scale), Morningglory ([6]; 125 g ai/ha) | Morningglory plant response rating [6, 17] | Morningglory plant response rating ([6]; Postemergence, 500 g ai/ha) | Plant response rating (0 to 100 scale), Foxtail, Giant ([7]; 125 g ai/ha) | Foxtail, Giant plant response rating [7, 17] | Foxtail, Giant plant response rating ([7]; Postemergence, 500 g ai/ha) | Plant response rating (0 to 100 scale), Cocklebur ([8]; 125 g ai/ha) | Cocklebur plant response rating [8, 17] | Cocklebur plant response rating ([8]; Postemergence, 500 g ai/ha) | further results |
| --- | --- | --- | --- | --- | --- | --- | --- | --- | --- | --- | --- | --- | --- | --- | --- | --- | --- | --- | --- | --- | --- |
| CCNC(=O)c1cccc(NC(=O)c2nn(C(C)(C)C)nc2C)c1 [Compound 392] | 70 | 10 | 20 | 100 | 60 | 60 | 80 | 80 | 0 | 100 | 10 | 90 | 20 | 70 | 80 | 20 | 30 | 40 | 20 | 40 | Plant response rating (0 to 100 scale), Velvetleaf ([9]; 125 g ai/ha): 70; Velvetleaf plant response rating [9, 17]: 30; Velvetleaf plant response rating ([9]; Postemergence, 500 g ai/ha): 40; Ducksalad plant response rating [10]: 80; Barnyardgrass plant response rating [11]: 90; Plant response rating (0 to 100 scale), Crabgrass, Large ([12]; 125 g ai/ha): 100; Crabgrass, Large plant response rating [12, 17]: 10; Crabgrass, Large plant response rating ([12]; Postemergence, 500 g ai/ha): 20; Blackgrass plant response rating [13, 17]: 20; Blackgrass plant response rating ([13]; Postemergence, 500 g ai/ha): 60; Oat, Wild plant response rating [14, 17]: 0; Oat, Wild plant response rating ([14]; Postemergence, 500 g ai/ha): 30; Plant response rating (0 to 100 scale), Barnyardgrass ([15]; 125 g ai/ha): 90; Barnyardgrass plant response rating [15, 17]: 10; Barnyardgrass plant response rating ([15]; Postemergence, 500 g ai/ha): 20; Plant response rating (0 to 100 scale), Corn ([16]; 125 g ai/ha): 70; Corn plant response rating [16, 17]: 0; Corn plant response rating ([16]; Postemergence, 500 g ai/ha): 20 |
| Cc1nn(C(C)(C)C)nc1C(=O)Nc1cccc(C(=O)N2CC=CC2)c1 [Compound 393] | 80 | 10 | 10 | 100 | 40 | 50 | 90 | 80 | 0 | 100 | 10 | 20 | 30 | 50 | 80 | 20 | 30 | 30 | 30 | 60 | Plant response rating (0 to 100 scale), Velvetleaf ([9]; 125 g ai/ha): 50; Velvetleaf plant response rating [9, 17]: 40; Velvetleaf plant response rating ([9]; Postemergence, 500 g ai/ha): 60; Ducksalad plant response rating [10]: 90; Barnyardgrass plant response rating [11]: 90; Plant response rating (0 to 100 scale), Crabgrass, Large ([12]; 125 g ai/ha): 90; Crabgrass, Large plant response rating [12, 17]: 10; Crabgrass, Large plant response rating ([12]; Postemergence, 500 g ai/ha): 20; Blackgrass plant response rating [13, 17]: 20; Blackgrass plant response rating ([13]; Postemergence, 500 g ai/ha): 40; Oat, Wild plant response rating [14, 17]: 10; Oat, Wild plant response rating ([14]; Postemergence, 500 g ai/ha): 30; Plant response rating (0 to 100 scale), Barnyardgrass ([15]; 125 g ai/ha): 90; Barnyardgrass plant response rating [15, 17]: 10; Barnyardgrass plant response rating ([15]; Postemergence, 500 g ai/ha): 20; Plant response rating (0 to 100 scale), Corn ([16]; 125 g ai/ha): 40; Corn plant response rating [16, 17]: 0; Corn plant response rating ([16]; Postemergence, 500 g ai/ha): 20 |
| CCc1nn(C(C)(C)C)nc1C(=O)Nc1cccc(C(=S)N(C)C)c1 [Compound 395] | 90 | 20 | 60 | 100 | 40 | 60 | 90 | 80 | 20 | 100 | 30 | 80 | 40 | 80 | 100 | 30 | 50 | 60 | 70 | 80 | Plant response rating (0 to 100 scale), Velvetleaf ([9]; 125 g ai/ha): 80; Velvetleaf plant response rating [9, 17]: 30; Velvetleaf plant response rating ([9]; Postemergence, 500 g ai/ha): 60; Ducksalad plant response rating [10]: 90; Barnyardgrass plant response rating [11]: 90; Plant response rating (0 to 100 scale), Crabgrass, Large ([12]; 125 g ai/ha): 100; Crabgrass, Large plant response rating [12, 17]: 20; Crabgrass, Large plant response rating ([12]; Postemergence, 500 g ai/ha): 50; Blackgrass plant response rating [13, 17]: 20; Blackgrass plant response rating ([13]; Postemergence, 500 g ai/ha): 40; Oat, Wild plant response rating [14, 17]: 40; Oat, Wild plant response rating ([14]; Postemergence, 500 g ai/ha): 40; Plant response rating (0 to 100 scale), Barnyardgrass ([15]; 125 g ai/ha): 90; Barnyardgrass plant response rating [15, 17]: 20; Barnyardgrass plant response rating ([15]; Postemergence, 500 g ai/ha): 70; Plant response rating (0 to 100 scale), Corn ([16]; 125 g ai/ha): 90; Corn plant response rating [16, 17]: 30; Corn plant response rating ([16]; Postemergence, 500 g ai/ha): 60 |

From US20060069132A1, “Azolecarboxamide herbicides” (priority 2004, published 2006)
